In PMC8274517, “Diaryl azo derivatives as anti-diabetic and antimicrobial agents: synthesis, in vitro, kinetic and docking studies” (Journal of Enzyme Inhibition and Medicinal Chemistry, 2021):
pKi: −log10 of the molar value. In brackets after ≈: the same amount, converted by molar mass. Entries after “also recorded” stand apart in the source; their conditions may differ.

Tests used:
P. aeruginosa (DR) [1] = test: Antibacterial activity, minimum inhibitory concentration; format: cell-based; parameters: key: R: resistant; S: sensitive
Procedure: (§1) The prepared azo derivatives were screened for their antibacterial activity against six bacterial strains obtained from hospital isolates i.e. gram positive (S. aureus, S. aureus (DR)) and gram-negative (E. coli, P. aeruginosa, P. aeruginosa (DR), P. vulgaris). All the strains were confirmed by biochemical identification and drug susceptibility methods. The antibacterial evaluation was done by agar disc diffusion method[39]^,[40] and MIC was determined. In summary, a 48-h old inoculum having ∼0.48 OD600, of the above-mentioned bacterial strains was spread on the solidified trypticase soy agar media and Whatman no. 1 filter paper discs (5 mm in diameter) soaked with the title compounds (10 µL/disc of 10 mg/mL) were placed on the plates. Ampicillin and moxifloxacin were used as positive controls and DMSO as negative control respectively.

S. aureus (DS) [2] = test: as above; format: cell-based; parameters: key: R: resistant; S: sensitive
Procedure: as §1

P. aeruginosa (DS) [3] = test: as above; format: cell-based; parameters: key: R: resistant; S: sensitive
Procedure: as §1

S. aureus (DR) = test: as above; format: cell-based; parameters: key: R: resistant; S: sensitive
Procedure: as §1

E. coli = test: as above; format: cell-based; parameters: key: R: resistant; S: sensitive
Procedure: as §1

P. vulgaris = test: as above; format: cell-based; parameters: key: R: resistant; S: sensitive
Procedure: as §1

α-glucosidase [4] = test: In vitro α-glucosidase inhibition assay (pNPG substrate); format: biochemical, Saccharomyces Cerevisiae; settings: for IC50: means ± SEM of triplicate
Procedure: The α-glucosidase inhibition assay was performed as described previously. In summary, the stock solution of the enzyme from Saccharomyces Cerevisiae (0.2 U/mL) was prepared in 0.05 M sodium phosphate buffer pH 6.8. […] After incubation, 10 µL of the substrate, p-nitrophenyl α-D-glucopyranoside (pNPG, 5 mM solution in 0.05 M phosphate buffer) was added to the aboveprepared mixture and incubated again under the same experimental conditions. The reaction was stopped with the addition of 0.1 M Na2CO3 and OD405 was taken by a 96-well ELISA reader. The experiment was performed in triplicate.

[5] = test system: screened pathogens (S. aureus, P. aeruginosa, E. coli and P. vulgaris); test: Antibacterial activity, average MIC over screened pathogens; format: cell-based
Procedure: as §1, with “All the strains were confirmed by biochemical identification and drug susceptibility methods.” left out, “plates.” for “plates. Ampicillin and moxifloxacin were used as positive controls and DMSO as negative control respectively.”

α-glucosidase [6] = test: Kinetic analysis and inhibition mechanism of α-glucosidase inhibition; format: biochemical, Saccharomyces Cerevisiae
Procedure: The potential inhibitor with concentrations 0.00, 0.062, 0.125, 0.25, 0.5 mM was selected for kinetic studies. The substrate (pNPG) concentration was optimised from 5 to 40 mM in all kinetic studies. Pre-incubation and measurement time was the same as discussed in α-glucosidase inhibition assay. The assay was continuously monitored at 405 nm for 5 min at 30 s intervals in the microplate reader after the addition of the enzyme. The inhibition type on the enzyme was assayed by Lineweaver–Burk plots of the inverse of velocities (1/V) versus the inverse of substrate concentration 1/[S] mM^−1, and the inhibition constant Ki was determined by two ways (Dixon plot of 1/V versus inhibitor concentrations) as well as secondary replot of slope versus inhibitor concentrations from Lineweaver–Burk plot.
The plot of the remaining enzyme activity versus the concentrations of the enzyme at different inhibitor concentrations (0.00, 0.062, 0.125, 0.25 and 0.5 mM) was calculated.

S. aureus (DS) [7] = test: Antibiofilm assay (crystal violet); format: cell-based; settings: 0.5 mg/mL
Procedure: (§2) The antibiofilm activity of the synthesised azo derivatives was assessed by microtitre plate-based crystal violet method[44] against respective bacterial strains i.e. gram-positive (S. aureus, S. aureus (DR)) and gram-negative (P. aeruginosa, P. aeruginosa (DR)). In brief, 10 µL bacterial suspension, 100 µL trypticase soy broth and 10 µL (10 mg/mL) of test compounds were added in the wells in duplicates and incubated at 37 °C overnight. Ampicillin and moxifloxacin were used as positive controls. After the aspiration of planktonic cells, the biofilm was fixed with 99% methanol. The wells were then washed with 0.1 M sterile PBS (pH = 6.9) thrice and air-dried. Then, 200 µL of crystal violet solution (2%) was added to all wells. After 15 min, the excess of the crystal violet dye was removed and the wells were washed again with PBS. Then, the cell-bound crystal violet was dissolved in 33% acetic acid. The biofilm growth was quantified in terms of OD575 nm using an ELISA plate reader and biofilm hydrolysis was calculated by % inhibition formula.

P. aeruginosa (DS) [8] = test: Antibiofilm assay (crystal violet); format: cell-based; settings: 0.5 mg/mL
Procedure: as §2

P. aeruginosa (DR) [9] = test: Antibiofilm assay (crystal violet); format: cell-based; settings: 0.5 mg/mL
Procedure: as §2

Row | Molecule | Minimum inhibitory concentration: sensitive/resistant (P. aeruginosa (DR) [1]; 125 µg/200 µL) | Minimum inhibitory concentration: sensitive/resistant (P. aeruginosa (DR) [1]; 250 µg/200 µL) | Minimum inhibitory concentration: sensitive/resistant (S. aureus (DS) [2]; 125 µg/200 µL) | Minimum inhibitory concentration: sensitive/resistant (S. aureus (DS) [2]; 250 µg/200 µL) | Minimum inhibitory concentration: sensitive/resistant (P. aeruginosa (DS) [3]; 125 µg/200 µL) | Minimum inhibitory concentration: sensitive/resistant (P. aeruginosa (DS) [3]; 250 µg/200 µL) | Minimum inhibitory concentration: sensitive/resistant (S. aureus (DR); 125 µg/200 µL) | Minimum inhibitory concentration: sensitive/resistant (S. aureus (DR); 250 µg/200 µL) | Minimum inhibitory concentration: sensitive/resistant (E. coli; 125 µg/200 µL) | Minimum inhibitory concentration: sensitive/resistant (E. coli; 250 µg/200 µL) | Minimum inhibitory concentration: sensitive/resistant (P. vulgaris; 125 µg/200 µL) | Minimum inhibitory concentration: sensitive/resistant (P. vulgaris; 250 µg/200 µL) | % Inhibition (α-glucosidase [4]; 15.62 µg/mL) [%] | % Inhibition (α-glucosidase [4]; 31.2 µg/mL) [%] | % Inhibition (α-glucosidase [4]; 125 µg/mL) [%] | % Inhibition (α-glucosidase [4]; 250 µg/mL) [%] | IC50 (α-glucosidase [4]) [µg/mL] | biofilm inhibition (S. aureus (DS) [7]) | biofilm inhibition (P. aeruginosa (DS) [8]) | melting point [°C] | also measured
1 | O=[N+]([O-])c1ccc(/N=N/c2ccc(O)cc2O)cc1 [TR-1, (E)-4-((4-nitrophenyl)diazenyl)benzene-1,3-diol] | S | S | S | S | R | R | R | R | S | S | S | S | 49 | 68 | 88 | 95 | 15.70 ± 1.3 (≈ 60.6 µM) | greater than 70% |  |  | MIC (average value) [5]: 125 µg/200 µL; pKi (α-glucosidase [6]; EI dissociation constant, Dixon plot and secondary replot): 3.66; Inhibition type (α-glucosidase [6]; Lineweaver–Burk plot): Non-competitive; Km (α-glucosidase [6]; inhibitor dose 0.062 mM): 20 mM; Vmax (α-glucosidase [6]; inhibitor dose 0.062 mM): 0.166 ΔA/S; Km (α-glucosidase [6]; inhibitor dose 0.125 mM): 20 mM; Vmax (α-glucosidase [6]; inhibitor dose 0.125 mM): 0.125 ΔA/S; Km (α-glucosidase [6]; inhibitor dose 0.25 mM): 20 mM; Vmax (α-glucosidase [6]; inhibitor dose 0.25 mM): 0.090 ΔA/S; Km (α-glucosidase [6]; inhibitor dose 0.50 mM): 20 mM; Vmax (α-glucosidase [6]; inhibitor dose 0.50 mM): 0.071 ΔA/S; Inhibition (reversibility) (α-glucosidase [6]; remaining enzyme activity versus enzyme concentration): reversibly; also recorded: reversible
2 | penicillin [reference compound] |  |  |  |  |  |  |  |  |  |  |  |  |  |  |  |  |  | 65% | 60% |  | 
3 | Oc1ccc(N=Nc2cccnc2Cl)c(O)c1 [TR-7, 4-((2-chloropyridin-3-yl)diazenyl)benzene-1,3-diol] | S | S | R | R | R | R | R | R | R | R | R | R | 34 | 52 | 77 | 87 | 29.7 ± 2.8 (≈ 119 µM) |  | not found active | 187 to 189 | inhibition at 500 µg/mL (P. aeruginosa (DR) [9]; Pseudomonas aeruginosa, read-out: biofilm inhibition (anti-biofilm potency)): 55%
4 | (E)-1-(p-tolyldiazenyl)naphthalen-2-ol [TR-5] | S | S | R | R | R | S | S | S | S | S | R | R | 14 | 22 | 49 | 56 | 153.4 ± 11.5 |  |  |  | biofilm inhibition (anti-biofilm potency) (P. aeruginosa (DR) [9]): 80%
5 | O=[N+]([O-])c1ccc(/N=N/c2c(O)ccc3ccccc23)cc1 [TR-3, (E)-1-((4-nitrophenyl)diazenyl)naphthalen-2-ol] | R | R | R | R | R | S | R | R | R | R | R | R | 12 | 25 | 54 |  | 116.9 ± 8.6 (≈ 399 µM) | greater than 70% |  | 245 to 252 | 
